Measured values reported in doi:10.1101/2020.07.10.197525v1 (biorxiv, 2020).

Legend:
[1] = target: GABAA α3β2γ2 (Rattus norvegicus, UniProt P18508+P20236+P63138); test: voltage clamp of Xenopus oocytes, potentiation of GABA-induced currents; type: cell-based
[2] = target: GABAA α3β3γ2 (Rattus norvegicus, UniProt P18508+P20236+P63079); test: as above; type: cell-based
Chain of GABAA α3β3γ2 (P20236 29-493): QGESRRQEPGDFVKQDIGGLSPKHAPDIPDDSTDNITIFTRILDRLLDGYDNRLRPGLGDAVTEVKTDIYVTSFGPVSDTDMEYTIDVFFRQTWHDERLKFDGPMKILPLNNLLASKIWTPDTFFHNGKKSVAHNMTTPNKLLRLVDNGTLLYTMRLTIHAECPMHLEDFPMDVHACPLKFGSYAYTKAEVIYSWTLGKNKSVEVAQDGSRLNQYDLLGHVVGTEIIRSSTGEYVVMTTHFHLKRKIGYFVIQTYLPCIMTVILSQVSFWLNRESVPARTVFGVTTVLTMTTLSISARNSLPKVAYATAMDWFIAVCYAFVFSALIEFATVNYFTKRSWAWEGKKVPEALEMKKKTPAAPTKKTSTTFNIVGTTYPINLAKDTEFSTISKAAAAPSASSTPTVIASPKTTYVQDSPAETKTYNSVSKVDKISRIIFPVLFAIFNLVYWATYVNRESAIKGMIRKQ
Chain of GABAA α3β3γ2 (P63079 26-473): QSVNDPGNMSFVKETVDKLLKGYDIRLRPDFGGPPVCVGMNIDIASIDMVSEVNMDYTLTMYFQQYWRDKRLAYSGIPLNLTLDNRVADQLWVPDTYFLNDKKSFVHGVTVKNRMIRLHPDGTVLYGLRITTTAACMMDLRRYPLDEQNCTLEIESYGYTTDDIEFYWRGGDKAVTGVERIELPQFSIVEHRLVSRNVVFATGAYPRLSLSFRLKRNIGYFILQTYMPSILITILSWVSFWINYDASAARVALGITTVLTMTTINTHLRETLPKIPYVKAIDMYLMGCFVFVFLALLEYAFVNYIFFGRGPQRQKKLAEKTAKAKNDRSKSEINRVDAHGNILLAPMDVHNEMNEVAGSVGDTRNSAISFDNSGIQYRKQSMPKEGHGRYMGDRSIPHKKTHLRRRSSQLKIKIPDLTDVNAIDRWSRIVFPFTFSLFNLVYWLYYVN
Chain of GABAA α3β3γ2 (P18508 39-466): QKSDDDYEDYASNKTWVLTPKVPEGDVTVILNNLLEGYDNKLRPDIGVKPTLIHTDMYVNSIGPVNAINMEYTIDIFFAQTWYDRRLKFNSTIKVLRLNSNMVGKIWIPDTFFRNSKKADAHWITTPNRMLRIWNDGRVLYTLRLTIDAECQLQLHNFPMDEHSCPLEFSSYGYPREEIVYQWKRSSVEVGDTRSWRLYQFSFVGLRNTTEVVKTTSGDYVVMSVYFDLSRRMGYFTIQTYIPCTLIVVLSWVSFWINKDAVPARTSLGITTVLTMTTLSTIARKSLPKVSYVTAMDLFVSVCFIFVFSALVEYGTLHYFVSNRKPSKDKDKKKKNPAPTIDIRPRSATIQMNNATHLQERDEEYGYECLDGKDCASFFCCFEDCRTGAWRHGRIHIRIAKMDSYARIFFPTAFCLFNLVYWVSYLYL

Chain of GABAA α3β2γ2 (P20236 29-493): as the sequence (P20236 29-493) above
Chain of GABAA α3β2γ2 (P63138 26-474): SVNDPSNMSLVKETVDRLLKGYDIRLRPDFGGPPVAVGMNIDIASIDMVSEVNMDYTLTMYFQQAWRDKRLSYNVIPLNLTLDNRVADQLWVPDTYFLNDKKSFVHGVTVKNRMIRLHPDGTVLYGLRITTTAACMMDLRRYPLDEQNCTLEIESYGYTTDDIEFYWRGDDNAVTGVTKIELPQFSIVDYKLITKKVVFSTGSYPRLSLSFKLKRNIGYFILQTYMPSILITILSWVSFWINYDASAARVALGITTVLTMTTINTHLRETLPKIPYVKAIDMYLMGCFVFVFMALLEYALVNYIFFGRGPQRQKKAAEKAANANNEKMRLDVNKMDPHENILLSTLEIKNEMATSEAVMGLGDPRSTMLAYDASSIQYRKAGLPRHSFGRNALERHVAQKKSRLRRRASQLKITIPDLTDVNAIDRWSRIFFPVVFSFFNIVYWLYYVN
Chain of GABAA α3β2γ2 (P18508 39-466): as the sequence (P18508 39-466) above

Compound: CCOC(=O)c1cc(NC(=O)N(c2ccccc2)c2ccccc2)c2c(Cl)cc(Cl)cc2n1 [DCUK-OEt, 5,7-dichloro-4-([diphenylcarbamoyl]amino) quinoline-2-ethyl carboxylate]
- EC50 [1]: 0.38 µM
- EC50 [2]: 0.13 µM
